Experimental data taken from patent publication US11267823B2, “Substituted 1,2,3,3a,4,5,7,9,13,13a-decahydropyrido[1′,2′:4,5]pyrazino[1,2-a]pyrrolo[1,2-c]pyrimidines having HIV integrase inhibitory activity” (Shionogi & Co., Ltd., priority 2005, dated 2022).
Where a name gives a salt, the structure may show the parent alone.

biological target: HIV integrase (Human immunodeficiency virus type 1 group M subtype B (isolate HXB2) (HIV-1), UniProt P04585); assay: HIV integrase inhibitory activity assay (immunoplate strand transfer, OD405); type: biochemical; details: not given
Protocol: The HIV integrase inhibitory activity was investigated based on the following assay method.
(1) Preparation of DNA Solution
By the same method as that described in Experimental Example 1 of WO 2004/024693, a substrate DNA solution (2 pmol/μl) and a target DNA solution (5 pmol/μl) were prepared. […] Each sequence of a substrate DNA and a target DNA is as described in the same Experimental Example.
(2) Measurement of Inhibition Rate (IC50 Value)
Streptavidin (manufactured by Vector Laboratories) was dissolved in a 0.1M carbonate buffer solution (composition: […] Na2CO3, 10 mM NaHCO3) to a concentration of 40 μg/ml, Each 50 μl of this solution was added to a well of an immunoplate (manufactured by NUNC), this is allowed to stand at 4° C. overnight to adsorb. Then, each well was washed with a phosphate buffer (composition: 13.7 mM NaCl, 0.27 mM KCl, 0.43 mM Na2HPO4, 0.14 mM KH2PO4) two times, and 300 μl of a phosphate buffer containing 1% skim milk to block it for 30 minutes. Further, each well was washed with a phosphate buffer two times, 50 μl of a substrate DNA solution (2 pmol/μl) was added to adsorb at room temperature for 30 minutes while shaking, and this was washed with a phosphate buffer two times and, then, distilled water once.
Then, to each well prepared as described above were added 12 μl of a buffer (composition: 150 mM MOPS (pH7.2), 75 mM MnCl2, 50 mM 2-mercaptoethanol, 25% glycerol, 500 μg/ml bovine serum albumin-fraction V), and 51 μl of a reaction solution prepared from 39 μl of distilled water. Then, 9 μl of an integrase solution (30 pmol) was added, and the mixture was mixed well. To a well as a negative control (NC) was added 9 μl of a diluting solution (composition: 20 mM MOPS (pH7.2), 400 mM potassium glutamate, 1 mM EDTA, 0.1% NP-40, 20% glycerol, 1 mM DTT, 4 M urea), and this was mixed well using a plate mixer. […]
C abs.: absorbance of well of compound
NC abs.: absorbance of NC
PC abs.: absorbance of PC

O=C(NCc1ccc(F)cc1)c1cn2c(c(O)c1=O)C(=O)N1CCOC1C2 (stereo not shown) [Example C-2, 5-Hydroxy-4,6-dioxo-2,3,4,6,9,9a-hexahydro-1-oxa-8a,8a-diaza-cyclopenta[b]naphthalene-7 carboxylic acid 4-fluorobenzylamide] was tested, and the “Integrase inhibitory activity (IC50, ng/ml)” value was 3.3 ng/mL.

same assay, conditions: read-out: Integrase inhibitory activity (IC50, ng/ml) (converted)

In order of falling IC50:
1. CC(C)CN1CCCN2C(=O)c3c(O)c(=O)c(C(=O)NCc4ccc(F)cc4)cn3CC12 (stereo not shown) [Example F-2, 5-Hydroxy-1-isobutyl-6,10-dioxo-1,2,3,4,6,9,9a,10-octahydro-1,4a,8a-triazaanthracene-7-carboxylic acid 4-fluorobenzylamide]  0.00859 µM
2. CC(=O)N1CCCN2C(=O)c3c(O)c(=O)c(C(=O)NCc4ccc(F)cc4)cn3CC12 (stereo not shown) [Example H-2, 1-Acetyl-5-hydroxy-6,10-dioxo-1,2,3,4,6,9,9a,10-octahydro-1,4a,8a-triaza-anthracene-7-carboxylic acid 4-fluoro-benzylamide]  0.00747 µM

tested on: VSV-g pseudotyped HIV vector that expresses luciferase (PHIV); assay: microbe, parasite or virus in culture; type: cell-based; details: Human immunodeficiency virus 1, HEK-293T, 48 h, read-out: PHIV IC50

COCCN1C[C@@H]2CCCC[C@@H]2N2C(=O)c3c(O)c(=O)c(C(=O)NCc4ccc(F)cc4F)cn3C[C@@H]12 (racemic) [Example Z-54, racemic-(4aS,6aS,14aS)—N-[(2,4-Difluorophenyl)methyl]-12-hydroxy-6-[2-(methyloxy)ethyl]11,13-dioxo-1,2,3,4,4a,5,6,6a,7,11,13,14a-dodecahydropyrido[1′,2′:4,5]pyrazino[1,2-a]quinazoline-10-carboxamide] and O=C(NCc1ccc(F)cc1F)c1cn2c(c(O)c1=O)C(=O)N1[C@@H](C2)OC[C@@H]2CCCC[C@@H]21 (racemic) [Example Z-35, racemic-(4aR,6aR,14aS)—N-[(2,4-Difluorophenyl)methyl]-12-hydroxy-11,13-dioxo-1,3,4,4a,5,6a,7,11,13,14a-decahydro-2H-pyrido[1′,2′:4,5]pyrazino[1,2-a][3,1]benzoxazine-10-carboxamide] cannot be ordered by IC50: < 0.01 µM for the first, < 0.01 µM for the second.

First: CC[C@@H]1CO[C@H]2Cn3cc(C(=O)NCc4ccc(F)cc4F)c(=O)c(O)c3C(=O)N12 [Example Z-50, (3R,11aS)—N-[(2,4-Difluorophenyl)methyl]-3-ethyl-6-hydroxy-5,7-dioxo-2,3,5,7,11,11a-hexahydro[1,3]oxazolo[3,2-a]pyrido[1,2-d]pyrazine-8-carboxamide]
Second: O=C(NCc1ccc(F)cc1F)c1cn2c(c(O)c1=O)C(=O)N1[C@@H](CO)CO[C@@H]1C2 [Example Z-14, (3S,11aR)—N-[(2,4-Difluorophenyl)methyl]-6-hydroxy-3-(hydroxymethyl)-5,7-dioxo-2,3,5,7,11,11a-hexahydro[1,3]oxazolo[3,2-a]pyrido[1,2-d]pyrazine-8-carboxamide]
The IC50 of the first is lower: < 0.01 µM for the first, 0.01 to 0.1 µM for the second. The first is the more potent here.

C[C@H]1CO[C@@H]2Cn3cc(C(=O)NCc4ccc(F)cc4F)c(=O)c(O)c3C(=O)N12 [Example Z-9, (3S,11aR)—N-[(2,4-Difluorophenyl)methyl]-6-hydroxy-3-methyl-5,7-dioxo-2,3,5,7,11,11a-hexahydro[1,3]oxazolo[3,2-a]pyrido[1,2-d]pyrazine-8-carboxamide sodium salt] and COC[C@H]1[C@H](c2ccccc2)OC2Cn3cc(C(=O)NCc4ccc(F)cc4F)c(=O)c(O)c3C(=O)N21 (stereo partly shown) [Example Z-19] cannot be ordered by IC50: < 0.01 µM for the first, < 0.01 µM for the second.

With CC(C)(C)[C@H]1CO[C@@H]2Cn3cc(C(=O)NCc4ccc(F)cc4)c(=O)c(O)c3C(=O)N21 [Example Z-12, (3S,11aR)-3-(1,1-Dimethylethyl)-N-[(4-fluorophenyl)methyl]-6-hydroxy-5,7-dioxo-2,3,5,7,11,11a-hexahydro[1,3]oxazolo[3,2-a]pyrido[1,2-d]pyrazine-8-carboxamide] the IC50 was < 0.01 µM.
